{"source": "patent EP2527322A1", "about": "“Carbamyl alkylphenyl disulfide derivatives and their therapeutic uses” (NOSCIRA, S.A., priority 2011, dated 2012)"}
{"target": "T1, human recombinant GSK3β (Homo sapiens, UniProt P49841)", "T1 construct": "6His (N); purchased Millipore (Billerica, MA, USA)", "assay": "GSK-3β enzymatic assay (Z'-LYTE FRET)", "type": "biochemical", "conditions": "2 nM enzyme, 12.5 µM ATP, 2 µM substrate peptide, 60 min incubation at room temperature; read-out: GSK3β inhibition average EC50", "description": "The enzymatic activity of GSK3β was determined with a commercial system based on the Z'-LYTE® technology, available from Invitrogen Life Technologies (Carlsbad, CA, USA), using human recombinant GSK3β (N-terminal 6His-tagged recombinant enzyme with an H350L mutation) from Millipore (Billerica, MA, USA) as the enzyme source. This technology utilizes the fluorescence resonance energy transfer (\"FRET\") process between fluorescein and coumarin. The assay principle is based on the differential sensitivity of phosphorylated and non-phosphorylated peptide to proteolytic cleavage, which precludes the energy transfer process between the two fluorophores attached to both sides of the cleavage site. […] The assay is performed in 384-well black plates, in a final volume of 10 µl, with 2 nM enzyme concentration in 50 mM Hepes pH 7.5, 50 mM MgCl2, 1 mM EGTA and 0.05% Brij-35, using 12.5 µM ATP and 2 µM substrate peptide. The latter is a synthetic peptide, provided by Invitrogen under the commercial name \"Ser/Thr 9 peptide\", and it is based upon the sequence of a GSK3β substrate protein (glycogen synthase I) containing Ser-641. The peptide is labeled at both ends with fluorescein and coumarin. The assay is carried out in the presence of different concentrations of the tested compound, at a final 1% (v/v) DMSO concentration. After a 60 min incubation at room temperature, 5 µl of a commercial protease solution (sold by the same vendor in the assay kit) is added and a subsequent 1h incubation at room temperature is performed, before adding 5 µl of a suitable \"stop solution\", also provided by the vendor in the kit. After that, fluorescence intensity is recorded, monitoring emission at both 445 and 520 nm, upon excitation at 400 nm. An emission ratio is finally calculated, using the quotient among the emission at 445 nm divided by that at 520 nm.\nThe emission ratio of each tested sample is normalized to that of the control wells, so that for every compound concentration the percentage of inhibition is calculated by using the following equation: %Inhibition = 100⋅(E-S)/(E-B) [formula] wherein \"S\" is the emission ratio of the sample being considered, \"E\" is the average emission ratio of wells, including enzyme in the absence of inhibitors, and \"B\" is the average emission ratio of wells without enzyme. The inhibition values obtained at every compound concentration are finally used to calculate the EC50 of the tested compound, this parameter being the concentration of the compound which causes 50% of inhibition. For that purpose, the data were fitted to a classical 4-parameters isotherm equation using the nonlinear regression function of GraphPad™ Prism 5.0 (GraphPad Software Inc.). Such equation is described below: % Inhibition = L + (H-L)/(1 + (((EC50)/(C)))^n) [formula] wherein \"L\" is the lower asymptote of the theoretical sigmoidal curve, \"H\" is the higher asymptote, \"C\" is the concentration of compound and \"n\" is the Hill coefficient.", "units": {"EC50": "nM"}}
{"smiles": "CN(C(=O)SSCc1ccccc1)C(=O)c1ccccc1", "note": "[Compound 18]", "EC50": 10000}
{"smiles": "CCOC(=O)CNC(=O)SSCc1ccccc1", "note": "[Compound 2, (4-Phenyl-2,3-dithia-butyrylamino)-acetic acid ethyl ester]", "EC50": 460}
{"smiles": "COC(=O)CC(NC(=O)SSCc1ccccc1)C(=O)OC", "note": "(centres unmarked) [Compound 10]", "EC50": 8700}
{"smiles": "CCOC(=O)[C@H](CC(C)C)NC(=O)SSCc1ccccc1", "note": "[Compound 5, (2S) 4-Methyl-2-(4-phenyl-2,3-dithia-butyrylamino)-pentanoic acid ethyl ester]", "EC50": 14000}
{"smiles": "CCOC(=O)[C@H](Cc1ccc(O)cc1)NC(=O)SSCc1ccccc1", "note": "[Compound 4, (2S) 3-(4-Hydroxy-phenyl)-2-(4-phenyl-2,3-dithia-butyrylamino)-propionic acid ethyl ester]", "EC50": 1500}
{"smiles": "CCOC(=O)CN(CC(=O)OCC)C(=O)SSCc1ccccc1", "note": "[Compound 13]", "EC50": 220}
{"smiles": "CCOC(=O)[C@H](C)NC(=O)SSCc1ccccc1", "note": "[Compound 9, (2S) 2-(4-Phenyl-2,3-dithia-butyrylamino)-propionic acid ethyl ester]", "EC50": 5400}
{"smiles": "O=C(SSCc1ccccc1)N1C(=O)c2ccccc2C1=O", "note": "[Compound 17]", "EC50": 470}
{"smiles": "COC(=O)[C@@H]1CCCN1C(=O)SSCc1ccccc1", "note": "[Compound 14]", "EC50": 130}
{"smiles": "CCOC(=O)CN(Cc1ccccc1)C(=O)SSCc1ccccc1", "note": "[Compound 12]", "EC50": 260}
{"smiles": "CCOC(=O)CC[C@H](NC(=O)SSCc1ccccc1)C(=O)OCC", "note": "[Compound 8, (2S) 2-(4-Phenyl-2,3-dithia-butyrylamino)-pentanedioic acid diethyl ester]", "EC50": 6800}
{"smiles": "COC(=O)[C@@H](Cc1c[nH]c2ccccc12)NC(=O)SSCc1ccccc1", "note": "[Compound 11]", "EC50": 3300}
{"smiles": "CCOC(=O)[C@H](Cc1ccccc1)NC(=O)SSCc1ccccc1", "note": "[Compound 3, (2S) 3-Phenyl-2-(4-phenyl-2,3-dithia-butyrylamino)-propionic acid ethyl ester]", "EC50": 3900}
{"smiles": "COC(=O)CN(C)C(=O)SSCc1ccccc1", "note": "[Compound 1, [Methyl-(4-phenyl-2,3-dithia-butyryl)-amino]-acetic acid methyl ester]", "EC50": 290}
{"smiles": "CCOC(=O)CCNC(=O)SSCc1ccccc1", "note": "[Compound 7, 3-(4-Phenyl-2,3-dithia-butyrylamino)-propionic acid ethyl ester]", "EC50": 910}
{"smiles": "COC(=O)C(Cc1ccccc1)NC(=O)SSCc1ccccc1", "note": "(centres unmarked) [Compound 16]", "EC50": 1300}
{"tested_on": "phosphorylation at the Ser-396 residue of Tau protein in human neuroblastoma SH-SY5Y cells", "assay": "Cellular assay: Tau Ser-396 phosphorylation by ELISA in SH-SY5Y cells", "type": "cell-based", "conditions": "18 h incubation at 37°C, 1% (v/v) DMSO, read-out: pSer396-Tau average EC50", "description": "The effect of the compound in cells is determined by monitoring the level of phosphorylation at the Ser-396 residue of Tau protein in human neuroblastoma SH-SY5Y cells. Cells are grown in 96-well plates: 30,000 cells per well in a volume of 100 µl of 1:1 MEM:Ham's F12 medium including 10% (v/v) fetal bovine serum, 100 U/ml penicillin, 100 µg/ml streptomycin and 1% (v/v) 100-fold concentrated commercial stock of non-essential aminoacids (Gibco, Carlsbad, CA, USA), and incubated at 37°C during 24 h. Then, the corresponding amount of test compound is added to the wells to reach the desired concentration in 1% (v/v) DMSO. […] 60 µl of this mixture is then placed in an empty 96-well plate and the levels of Ser-396 phosphorylation are determined using a commercial ELISA kit (Biosource, Carlsbad, CA, USA), following manufacturer's instructions. The levels of phosphorylation are expressed as percentage values, after normalizing them to those in untreated cells and those values are used to calculate EC50s, as described above for GSK-3.", "units": {"EC50": "µM"}}
{"smiles": "COC(=O)CN(C)C(=O)SSCc1ccccc1", "note": "[Compound 1, [Methyl-(4-phenyl-2,3-dithia-butyryl)-amino]-acetic acid methyl ester]", "EC50": 4.2}
